Where a name gives a salt, the structure may show the parent alone. Read-outs that look alike come from different tables or passages of the source. Each block holds one molecule with its values, some of them ahead of it.
Tested on: amyloid β production in transfected H4 (human neuroglioma) cells stably expressing APP constructs
Assay: In vitro cell-based assay of inhibitors of amyloid β production (ELISA)
Conditions: amyloid β in medium by ELISA
Method in brief: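 Sandwich ELISA read-out: Aβ in conditioned medium captured via C-terminal epitope mAb, detected with N-terminus-specific rabbit polyclonal, quantified from a standard curve. Compounds 10-100 μM, ~16 h exposure. Active = ≥50% inhibition vs control without significant cytotoxicity; dose-response follows.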

[1] = Homo sapiens, 16 h, transfected H4 cells stably expressing APP, approximately 16 hours incubation, read-out: ACTIVITY (IC50, inhibition of amyloid β production)
[2] = transfected H4 cells stably expressing APP constructs, approximately 16 hours incubation, read-out: ACTIVITY (IC50, inhibition of amyloid β production)
[3] = transfected H4 cells stably expressing APP, approximately 16 hours incubation, read-out: ACTIVITY (IC50, inhibition of amyloid β production)
[4] = transfected H4 cells stably expressing APP, approx. 16 h incubation, read-out: ACTIVITY (IC50, inhibition of amyloid β production)
[5] = Homo sapiens, 16 h, transfected H4 cells expressing APP, approximately 16 hours incubation, read-out: ACTIVITY (IC50, inhibition of amyloid β production)

Molecule: CC(C)CS(=O)(=O)CCC[C@@H](C)N(c1cc(Cl)ccc1Cl)S(=O)(=O)c1ccc(Cl)cc1 [Example 1184]
IC50 [2]: 0.025 to 0.05 µM

Molecule: (2Z)-N-{3-[2-(1-{[(4-chlorophenyl)sulfonyl]-2,5-difluoroanilino}ethyl)phenoxy]propyl}-N-methyl-3-phenyl-2-propenamide [Example 738]
IC50 [4]: 0.1 to 0.5 µM

Molecule: 4-chloro-N-{3-[2-(1-{[(4-chlorophenyl)sulfonyl]-2,5-difluoroanilino}ethyl)phenoxy]propyl}-N-methyl-2-nitrobenzamide [Example 636]
IC50 [4]: 0.1 to 0.5 µM

Molecule: N-{3-[2-(1-{[(4-chlorophenyl)sulfonyl]-2,5-difluoroanilino}ethyl)phenoxy]propyl}-N,2-dimethylbenzamide [Example 693]
IC50 [4]: 0.1 to 0.5 µM

Molecule: O=S(=O)(c1ccc(Cl)cc1)N(Cc1cc(Cl)ccc1OCCCN1CCCCC1)c1ccccc1 [Example 230, 4-Chloro-N-{5-chloro-2-[3-(1-piperidinyl)propoxy]benzyl}-N-phenylbenzenesulfonamide Hydrochloride]
IC50 (Table B, transfected H4 cells stably expressing APP, approximately 16 hours incubation, read-out: ACTIVITY (inhibitory concentration IC50, inhibition of amyloid β production)): 0.025 to 0.05 µM

Molecule: O=S(=O)(c1ccc(Cl)cc1)N(Cc1ccccc1OCCCN1CC=CCC1)c1ccccc1 [Example 749, 4-chloro-N-{2-[3-(3,6-dihydro-1(2H)-pyridinyl)propoxy]benzyl}-N-phenylbenzenesulfonamide hydrochloride]
IC50 (Homo sapiens, 16 h, transfected H4 cells stably expressing APP, approx. 16 h incubation, read-out: ACTIVITY (IC50, inhibition of amyloid β production)): 0.1 to 0.5 µM

Molecule: CCSCCC[C@@H](C)N(c1cc(Cl)ccc1Cl)S(=O)(=O)c1ccc(Cl)cc1 [Example 1183, 4-chloro-N-[2,5-dichlorophenyl]-N-[1(R)-methyl-(4-ethylthio)butyl]benzenesulfonamide]
IC50 [2]: ≤ 0.025 µM

Molecule: CC[S+]([O-])CCC[C@@H](C)N(c1cc(F)ccc1F)S(=O)(=O)c1ccc(Cl)cc1 (stereo partly drawn) [Example 1174, 4-chloro-N-[2,5-difluorophenyl]-N-[1(R)-methyl-(4-ethylsulfinyl)butyl]benzenesulfonamide]
IC50 [2]: ≤ 0.025 µM

Molecule: O=S(=O)(c1ccc(Cl)cc1)N(Cc1ccccc1OCCCN1CCCCCC1)c1ccccc1 [Example 851, N-{2-[3-(1-azepanyl)propoxy]benzyl}-4-chloro-N-phenylbenzenesulfonamide hydrochloride]
IC50 [1]: 0.1 to 0.5 µM

Molecule: CSC1CCCN(CC[C@@H](C)N(c2cc(Cl)ccc2Cl)S(=O)(=O)c2ccc(Cl)cc2)C1 (stereo partly shown) [Example 1159]
IC50 [2]: > 0.5 µM

Molecule: C[C@H](CCC[S+](C)[O-])N(c1cc(Cl)ccc1CO)S(=O)(=O)c1ccc(Cl)cc1 (stereo partly drawn) [Example 1224, 4-chloro-N-[5-chloro-2-(hydroxymethyl)phenyl]-N-[1(R)-methyl-(4-methylsulfinyl)butyl]benzenesulfonamide]
IC50 [2]: ≤ 0.025 µM

Molecule: N-{2-[2-(1-{[(4-chlorophenyl)sulfonyl]-2,5-difluoroanilino}ethyl)phenoxy]ethyl}-N,2-diethylhexanamide [Example 831]
IC50 [3]: 0.1 to 0.5 µM

Molecule: CC(c1ccccc1OCCCN(C)S(=O)(=O)/C=C/c1ccccc1)N(c1cc(F)ccc1F)S(=O)(=O)c1ccc(Cl)cc1 (stereo not shown) [Example 773, 4-chloro-N-(2,5-difluorophenyl)-N-(1-{2-[3-(methyl{[(E)-2-phenylethyl]sulfonyl}amino)propoxy]phenyl}ethyl)benzenesulfonamide]
IC50 [4]: 0.1 to 0.5 µM

Molecule: 4-bromo-N-{3-[2-(1-{[(4-chlorophenyl)sulfonyl]-2,5-difluoroanilino}ethyl)phenoxy]propyl}-N-methylbenzamide [Example 683]
IC50 [4]: 0.1 to 0.5 µM

Molecule: CC(C)C[C@H](NC(=O)CCC[C@@H](C)N(c1cc(Cl)ccc1F)S(=O)(=O)c1ccc(Cl)cc1)C(=O)O [Example 546, (R)-4-Chloro-N-(5-chloro-2-fluorophenyl)-N-[5-[N-(S)-[1-(carboxy)-3-methylbutyl]amino]-1-methyl-5-oxopentyl]benzenesulfonamide]
IC50 [4]: 0.1 to 0.5 µM

Continued, values first:

IC50 [1]: > 0.5 µM
Molecule: C#Cc1ccccc1CN(c1ccccc1)S(=O)(=O)c1ccc(Cl)cc1 [Example 991, 4-chloro-N-(2-ethynylbenzyl)-N-phenylbenzenesulfonamide]

IC50 [3]: 0.1 to 0.5 µM
Molecule: N-{3-[2-({[(4-chlorophenyl)sulfonyl]-2,5-difluoroanilino}methyl)phenoxy]propyl}-N-methyl-2-naphthamide [Example 810]

IC50 [4]: 0.1 to 0.5 µM
Molecule: 4-chloro-N-{3-[2-(1-{[(4-chlorophenyl)sulfonyl]-2,5-difluoroanilino}ethyl)phenoxy]propyl}-N-methylbenzamide [Example 722]

IC50 [3]: > 0.5 µM
Molecule: O=S(=O)(c1ccc(F)cc1)n1c(-c2ccccc2OCCCN2CCCCC2)cc2ccccc21 [Example 1032, 2-{1-[(4-flurophenyl}sulfonyl]-1H-indol-2-yl}phenyl 3-(1-piperidinyl)propyl ether trifluoroacetate]

IC50 [3]: > 0.5 µM
Molecule: O=S(=O)(c1ccc(Cl)cc1)N(Cc1ccccc1OCCC[N+]1([O-])CCCCC1)c1ccccc1 [Example 883]

IC50 [3]: > 0.5 µM
Molecule: 2-({[(4-chlorophenyl)sulfonyl]anilino}methyl)phenyl trifluoromethanesulfonate [Example 1004]

IC50 [5]: > 0.5 µM
Molecule: C[C@H](C(=O)NCCN1CCCCC1)N(c1cc(Cl)ccc1F)S(=O)(=O)c1ccc(Cl)cc1 [Example 1352]

IC50 [2]: 0.05 to 0.1 µM
Molecule: COC(=O)C[S+]([O-])CC[C@@H](C)N(c1cc(Cl)ccc1Cl)S(=O)(=O)c1ccc(Cl)cc1 (stereo partly drawn) [Example 1187, methyl(6R)-6-[(2,5-dichlorophenyl)-[(4-chlorophenyl)sulfonyl]-amino]-3-thioheptanoic acid, 3-oxide]

IC50 [5]: ≤ 0.025 µM
Molecule: C[C@H](CCCOC(=O)N1CCCC1)N(c1cc(Cl)ccc1CO)S(=O)(=O)c1ccc(Cl)cc1 [Example 1298]

IC50 [1]: > 0.5 µM
Molecule: O=S(=O)(c1ccccc1)N(Cc1ccccc1CCCN1CCCCC1)c1ccccc1 [Example 1031, N-phenyl-N-{2-[3-(1-piperidinyl)propyl]benzyl}benzenesulfonamide]

IC50 [5]: > 10 µM
Molecule: CCN(CCCn1ccnc1)C(=O)OC[C@@H](C)N(c1cc(Cl)ccc1CO)S(=O)(=O)c1ccc(Cl)cc1 [Example 1296]

IC50 (Homo sapiens, 16 h, Table B, transfected H4 cells stably expressing APP, approximately 16 hours incubation, read-out: ACTIVITY (inhibitory concentration IC50, inhibition of amyloid β production)): 0.025 to 0.05 µM
Molecule: C=C(C)C(=O)CCCc1cc(F)ccc1[C@@H](C)N(c1cc(F)ccc1F)S(=O)(=O)c1ccc(Cl)cc1 [Example 207, 4-chloro-N-(2,5-difluorophenyl)-N-{(1R)-1-[4-fluoro-2-(5-methyl-4-oxo-5-hexenyl)phenyl]ethyl}benzenesulfonamide]

IC50 (Homo sapiens, 16 h, transfected H4 cells stably expressing APP, approximately 16 hours incubation, Table B, read-out: ACTIVITY (IC50, inhibition of amyloid β production)): 0.05 to 0.1 µM
Molecule: CC(NC(=O)OCCc1cc(F)ccc1[C@@H](C)N(c1cc(F)ccc1F)S(=O)(=O)c1ccc(Cl)cc1)c1ccccc1 (stereo partly drawn) [Example 385, 2-[2-((1R)-1-{[(4-chlorophenyl)sulfonyl]-2,5-difluoroanilino}ethyl)-5-fluorophenyl]ethyl 1 phenylethylcarbamate]

IC50 [4]: 0.1 to 0.5 µM
Molecule: 2,4-dichloro-N-{3-[2-(1-{[(4-chlorophenyl)sulfonyl]-2,5-difluoroanilino}ethyl)phenoxy]propyl}-N-methylbenzenesulfonamide [Example 647]

IC50 [1]: 0.1 to 0.5 µM
Molecule: O=S(=O)(c1ccc(Cl)cc1)N(Nc1cc(F)ccc1F)[C@H](CO)c1ccccc1 [Example 868, 4-chloro-N-(2,5-difluoroanilino)-N-[(1S)-2-hydroxy-1-phenylethyl]benzenesulfonamide]

IC50 (transfected H4 cells stably expressing APP, approximately 16 hours incubation, Table B, read-out: ACTIVITY (IC50, inhibition of amyloid β production)): 0.05 to 0.1 µM
Molecule: CNC(=O)CCCOc1ccccc1C(C)N(c1cc(F)ccc1F)S(=O)(=O)c1ccc(Cl)cc1 (stereo not shown) [Example 378, 4-[2-(1-{[(4-Chlorophenyl)sulfonyl]-2,5-difluoroanilino}ethyl)phenoxy]-N-methylbutanamide]

— patent US6967196B1, “Sulfonamide compounds and uses thereof” (Bristol-Myers Squibb Company, priority 1999, dated 2005)
